Data from patent US8192962B2, “Processes for detecting toxic substances” (Daikin Industries, Ltd., priority 2001, dated 2012).

System: Mitochondria-located protein genes
Experiment: DNA chip mRNA expression in yeast, mitochondria-located protein genes (Table 2)
Assay type: cell-based, Saccharomyces cerevisiae S288C
Conditions: cells incubated two hours with the chemical substance
Experimental: Yeast (Saccharomyces cerevisiae S288C (α SUC2mal mel gap2 CUP1)) were incubated at 25° C. on YPD medium (yeast extract 1%, polypepton 2%, glucose 2%). One of toxic chemical substances was added to the cells at logarithmic growth phase, and the cells were further incubated for two hours. Cells were cultured without any chemical substance in the same condition, and were used as control. Concentrations of the chemical substances were defined to inhibit the growth of the yeast but not lead to death.
After completion of the incubation, the culture was centrifuged to collect the cells. To the cells, sodium acetate buffer (50 mM sodium acetate, 10 mM EDTA, 1% SDS) was added, and the mixture was shaken at 65° C. for five minutes, followed by returning to room temperature, and obtaining the supernatant, of which the procedures were repeated two times. To the supernatant, ½ amount of a solution of phenol/chloroform was added, and the mixture was centrifuged to give a supernatant, which was added with an equal amount of chloroform, and the mixture was centrifuged to give a supernatant. To the supernatant, an equal amount of isopropanol containing 0.3 M sodium acetate was added, and the mixture was allowed to stand at room temperature for 30 minutes, after which the mixture was centrifuged to give a sediment of the whole RNAs. Seventy % ethanol was added to the sediment, and the mixture was again centrifuged to give a sediment, which was then dried and dissolved in water. mRNA was isolated from the whole RNAs as followings. In view of the fact that a poly A chain is attached to the 3′ terminus of mRNA, a polynucleotide having a poly T structure which was immobilized on the surface of latex beads was used to trap the mRNA, and then the mRNA was washed and eluted with spine column (Oligotex-dT30<Super>mRNA Purification Kit, Takara). Reverse transcription of the mRNA was conducted with a reverse transcriptase (Super Script II Reverse Transcriptase; catalogue No. 18064-014, GibcoBRL) using fluorescence-labeled nucleotides to give cDNAs that were introduced with Cy3-dUTP or Cy5-dUTP during the reverse transcription.
The labeled cDNAs were dissolved in TE buffer (10mM Tris-HCl/1 mM EDTA, pH8.0), and the solution was dropped on the DNA chip containing the whole genes of yeast (DNA Chip Research Inc. Japan) so that the cDNAs were hybridized on the DNA chip at 65° C. for over 12 hours. The fluoresces intensity of the DNA chip was read with a scanner, and the ratio relative to the fluorescence intensity resulting from the absence of chemical substance was estimated as the following, which is shown in Tables 1 to 9: […]

`[Cl][Hg][Cl]` [(3), HgCl2] was tested, and the “The level of expressed mRNA in the presence of chemical substance/The level of expressed mRNA in the absence of chemical substance” value (yeast gene YJR121W) was 3.3, the “The level of expressed mRNA in the presence of chemical substance/The level of expressed mRNA in the absence of chemical substance” value (yeast gene YKL003C) was 0.8 and the “The level of expressed mRNA in the presence of chemical substance/The level of expressed mRNA in the absence of chemical substance” value (yeast gene YKL016C) was 0.7. For the same compound, the “The level of expressed mRNA in the presence of chemical substance/The level of expressed mRNA in the absence of chemical substance” value (yeast gene YKL141W) was 4.7, the “The level of expressed mRNA in the presence of chemical substance/The level of expressed mRNA in the absence of chemical substance” value (yeast gene YKL142W) was 3.1 and the “The level of expressed mRNA in the presence of chemical substance/The level of expressed mRNA in the absence of chemical substance” value (yeast gene YKL148C) was 3.7. The “The level of expressed mRNA in the presence of chemical substance/The level of expressed mRNA in the absence of chemical substance” value (yeast gene YKL170W) was 0.5, the “The level of expressed mRNA in the presence of chemical substance/The level of expressed mRNA in the absence of chemical substance” value (yeast gene YKL194C) was 0.8 and the “The level of expressed mRNA in the presence of chemical substance/The level of expressed mRNA in the absence of chemical substance” value (yeast gene YKR066C) was 5.5. The “The level of expressed mRNA in the presence of chemical substance/The level of expressed mRNA in the absence of chemical substance” value (yeast gene YLL041C) was 4.6, the “The level of expressed mRNA in the presence of chemical substance/The level of expressed mRNA in the absence of chemical substance” value (yeast gene YLR038C) was 0.6 and the “The level of expressed mRNA in the presence of chemical substance/The level of expressed mRNA in the absence of chemical substance” value (yeast gene YLR259C) was 3.1. For the same compound, the “The level of expressed mRNA in the presence of chemical substance/The level of expressed mRNA in the absence of chemical substance” value (yeast gene YLR295C) was 1.1, the “The level of expressed mRNA in the presence of chemical substance/The level of expressed mRNA in the absence of chemical substance” value (yeast gene YLR304C) was 5.0 and the “The level of expressed mRNA in the presence of chemical substance/The level of expressed mRNA in the absence of chemical substance” value (yeast gene YLR348C) was 1.2. For the same compound, the “The level of expressed mRNA in the presence of chemical substance/The level of expressed mRNA in the absence of chemical substance” value (yeast gene YLR395C) was 2.2, the “The level of expressed mRNA in the presence of chemical substance/The level of expressed mRNA in the absence of chemical substance” value (yeast gene YML054C) was 1.3 and the “The level of expressed mRNA in the presence of chemical substance/The level of expressed mRNA in the absence of chemical substance” value (yeast gene YML120C) was 1.9. The “The level of expressed mRNA in the presence of chemical substance/The level of expressed mRNA in the absence of chemical substance” value (yeast gene YML129C) was 0.9, the “The level of expressed mRNA in the presence of chemical substance/The level of expressed mRNA in the absence of chemical substance” value (yeast gene YMR023C) was 0.5 and the “The level of expressed mRNA in the presence of chemical substance/The level of expressed mRNA in the absence of chemical substance” value (yeast gene YMR035W) was 1.5. For the same compound, the “The level of expressed mRNA in the presence of chemical substance/The level of expressed mRNA in the absence of chemical substance” value (yeast gene YMR083W) was 2.6, the “The level of expressed mRNA in the presence of chemical substance/The level of expressed mRNA in the absence of chemical substance” value (yeast gene YMR089C) was 0.9 and the “The level of expressed mRNA in the presence of chemical substance/The level of expressed mRNA in the absence of chemical substance” value (yeast gene YMR152W) was 1.8. The “The level of expressed mRNA in the presence of chemical substance/The level of expressed mRNA in the absence of chemical substance” value (yeast gene YMR203W) was 3.0, the “The level of expressed mRNA in the presence of chemical substance/The level of expressed mRNA in the absence of chemical substance” value (yeast gene YMR267W) was 0.7 and the “The level of expressed mRNA in the presence of chemical substance/The level of expressed mRNA in the absence of chemical substance” value (yeast gene YNL055C) was 5.5. For the same compound, the “The level of expressed mRNA in the presence of chemical substance/The level of expressed mRNA in the absence of chemical substance” value (yeast gene YNL071W) was 1.7, the “The level of expressed mRNA in the presence of chemical substance/The level of expressed mRNA in the absence of chemical substance” value (yeast gene YNL073W) was 0.9 and the “The level of expressed mRNA in the presence of chemical substance/The level of expressed mRNA in the absence of chemical substance” value (yeast gene YNL104C) was 3.0. For the same compound, the “The level of expressed mRNA in the presence of chemical substance/The level of expressed mRNA in the absence of chemical substance” value (yeast gene YNL256W) was 0.6, the “The level of expressed mRNA in the presence of chemical substance/The level of expressed mRNA in the absence of chemical substance” value (yeast gene YOL096C) was 1.2 and the “The level of expressed mRNA in the presence of chemical substance/The level of expressed mRNA in the absence of chemical substance” value (yeast gene YOR020C) was 1.7. For the same compound, the “The level of expressed mRNA in the presence of chemical substance/The level of expressed mRNA in the absence of chemical substance” value (yeast gene YOR037W) was 0.6, the “The level of expressed mRNA in the presence of chemical substance/The level of expressed mRNA in the absence of chemical substance” value (yeast gene YOR100C) was 1.6 and the “The level of expressed mRNA in the presence of chemical substance/The level of expressed mRNA in the absence of chemical substance” value (yeast gene YOR130C) was 1.4. For the same compound, the “The level of expressed mRNA in the presence of chemical substance/The level of expressed mRNA in the absence of chemical substance” value (yeast gene YOR142W) was 3.4, the “The level of expressed mRNA in the presence of chemical substance/The level of expressed mRNA in the absence of chemical substance” value (yeast gene YOR150W) was 1.0 and the “The level of expressed mRNA in the presence of chemical substance/The level of expressed mRNA in the absence of chemical substance” value (yeast gene YOR176W) was 2.7. The “The level of expressed mRNA in the presence of chemical substance/The level of expressed mRNA in the absence of chemical substance” value (yeast gene YOR187W) was 1.9, the “The level of expressed mRNA in the presence of chemical substance/The level of expressed mRNA in the absence of chemical substance” value (yeast gene YOR316C) was 1.5 and the “The level of expressed mRNA in the presence of chemical substance/The level of expressed mRNA in the absence of chemical substance” value (yeast gene YPL040C) was 0.8. The “The level of expressed mRNA in the presence of chemical substance/The level of expressed mRNA in the absence of chemical substance” value (yeast gene YPL134C) was 1.6, the “The level of expressed mRNA in the presence of chemical substance/The level of expressed mRNA in the absence of chemical substance” value (yeast gene YPL135W) was 2.5 and the “The level of expressed mRNA in the presence of chemical substance/The level of expressed mRNA in the absence of chemical substance” value (yeast gene YPL215W) was 1.0. For the same compound, the “The level of expressed mRNA in the presence of chemical substance/The level of expressed mRNA in the absence of chemical substance” value (yeast gene YPL262W) was 3.8, the “The level of expressed mRNA in the presence of chemical substance/The level of expressed mRNA in the absence of chemical substance” value (yeast gene YPR024W) was 1.3 and the “The level of expressed mRNA in the presence of chemical substance/The level of expressed mRNA in the absence of chemical substance” value (yeast gene YPR037C) was 1.6. The “The level of expressed mRNA in the presence of chemical substance/The level of expressed mRNA in the absence of chemical substance” value (yeast gene YPR047W) was 0.9 and the “The level of expressed mRNA in the presence of chemical substance/The level of expressed mRNA in the absence of chemical substance” value (yeast gene YPR134W) was 0.8.
